Reference: article doi:10.1101/2024.05.17.594634, “Protein Structure Inspired Drug Discovery” (bioRxiv, 2024)
Blank lines part the entries; values can stand above or below the molecule they belong to.

Experiments:
human CD34+ stem cells = experiment: Bone marrow stem cell (hematopoietic) colony formation assay; format: cell-based; settings: for mean number of colonies, % of control, 14 day / mean number of colonies, % of control, 8 day: 40 μM compound, mean N=2; for mean number of colonies, % of control, 14 day: 14 days; for mean number of colonies, % of control, 8 day: total colonies at 8 days
Protocol: In parallel with measuring growth inhibition of cancer cell growth, we measured effect on human hematopoietic stem cells. Hematopoietic stem cells reside in the bone marrow and are the source of mature cells present in blood.[66] Bone marrow is one of the most sensitive organs in the body to drug toxicity, especially so for anticancer drugs where it can approach 100%.[67–69] Bone marrow toxicity was measured by performing hematopoietic colony formation assays on human CD34+ stem cells. The stem cell nature of this assay permitted assessment of trilineage colony formation: granulocytic (white blood cells), erythrocytic (red blood cells) and megakaryocytic (platelets), measured by the formation of CFU-GM (colony-forming-granulocyte-macrophage), BFU-E (erythroid burst-forming unites) and CFU-GEMM (colony-forming unit-granulocyte, erythrocyte, monocyte, megakaryocyte) colonies, respectively. Two measurements were taken. Total colonies at eight days were measured, thereby matching the eight-day time frame of cancer cell colony formation assays. At fourteen days, individual colonies have differentiated, permitting quantification of each lineage. Human hematopoietic stem cell trilineage colony formation assays were performed as previously described by us.[65] Briefly, human cord blood CD34+ cells (catalog #: 70008.5) were purchased from StemCell Technology Inc., and seeded at 1 × 10^4 cells per 35 mm dish. Cells were cultured in MethoCult™ Express (StemCell Technologies, Inc.) semisolid media, per manufacturer’s instructions, in the presence of compound or vehicle control. At eight days colonies, i.e., groups of ≥ 10 cells, were counted. At fourteen days, individual colonies of BFU-E, CFU-GM and CFU-GEMM were identified based on manufacturers’ morphologic characterization criteria. Assays were run in replicates of N = 2; some were run in replicates of N = 3, as denoted.

HT116 colon cancer cells = experiment: Eight-day colony formation assay, HT116; format: cell-based, human
Protocol: (§1) We sought to identify compounds that would inhibit the growth of cancer cells, but that also did so selectively. Inhibition of cancer cell growth is a highly sought after attribute of anticancer agents. This was assessed by measuring the ability of a compound to inhibit cell growth in eight-day colony formation assays, examining concentrations ranging from 0.017 to 40 μM. Breast, colon, lung and prostate cancer are four of the most common causes of cancer in the United States, are major causes of cancer cell death, and were examined.[64] Two cell lines for each cancer type were assessed: A549 (adenocarcinoma) and H226 (squamous carcinoma) for lung, MCF-7 (estrogen receptor [ER] positive) and MDA-MB-231 (ER negative) for breast, LNCaP (androgen receptor [AR] positive) and PC3-M (AR negative) for prostate, and HCT116 (wild type p53, mutated KRAS) and HT29 (p53 mutant) for colon.[65]
(§2) In considering effect on cancer cells, for each compound and each cell line tested we calculated the efficacy ratio, i.e., efficacy ratio = (percent of remaining cancer cell colonies)/(percent of remaining bone marrow colonies), at 8 days after treatment with 40 μM compound (S4 Fig). We considered those with an efficacy ratio below 0.5 as active and at least partially selective. The stringency of this is highlighted by considering the effect of 5FU on colon cancer, where it is frequently used clinically in proven curative settings, as well as proven life prolonging settings.[70, 71] […] Even at 5.7 μM, where 5FU is toxic to bone marrow, with hematopoietic colony formation at 38% of control, the efficacy ratio for HT29 cells has only dropped to 0.52. […] It can be seen that compounds segregate to protein sites. Specifically, of 10 compounds meeting this activity criteria (i.e., efficacy ratio <0.5), 3 were directed at the Dxr2 site, 3 at FolC2, 2 at FolC1, 1 at Dxr1 and 1 at TYLT.
(§3) Eight-day colony formation assays of cancer cells were performed as described by us.[87] Briefly, 0.5–1.0 × 10^3 cells were seeded into a 12 well plate, after 24 hours compound added and eight days later colonies (of 3 or more cells) were scored after trypan blue staining. Conditions were in replicates of N = 2. All compounds were stored under desiccated conditions in a sealed container at minus 20°C upon arrival. One day prior to use, they were placed into DMSO, stored at […] as stock solutions, thawed just prior to use, and not reused.

HT29 colon cancer cells = experiment: Eight-day colony formation assay, HT29; format: cell-based, human
Protocol: as §1, §2, §3

[1] = test system: MCF-7 breast cancer cells; experiment: Eight-day colony formation assay, MCF-7; format: cell-based, human
Protocol: as §1, §2, §3

[2] = test system: MDA-MB-231 breast cancer cells; experiment: Eight-day colony formation assay, MDA-MB-231; format: cell-based, human; settings: MDAMB231
Protocol: as §1, §2, §3

H226 lung cancer cells = experiment: Eight-day colony formation assay, H226; format: cell-based, human
Protocol: as §1, §2, §3

A549 lung cancer cells = experiment: Eight-day colony formation assay, A549; format: cell-based, human
Protocol: as §1, §2, §3

[3] = test system: PC3-M prostate cancer cells; experiment: Eight-day colony formation assay, PC3-M; format: cell-based, human
Protocol: as §1, §2, §3

[4] = test system: LNCaP prostate cancer cells; experiment: Eight-day colony formation assay, LNCaP; format: cell-based, human
Protocol: as §1, §2, §3

[5] = test system: human breast, prostate, colon and lung cancer cells; experiment: Eight-day colony formation assays, summary across the cancer cell line panel; format: cell-based
Protocol: as §1, §2, §3

[6] = test system: HT29, MDA-MB-231 and H226; experiment: NCI-60 cell line screen, other cell lines; format: cell-based, human; settings: 10 μM X 48 hours
Protocol: Above findings support the importance of Dxr2 and FolC2 sites, and of Dxr2-017 and FolC2-001 compounds, respectively. The predicted poses of Dxr2-017 bound to the Dxr2 site and FolC2-001 bound to the FolC2 site are shown (Fig 7). The NCI-60 cell line screen evaluates compound growth inhibition and cell toxicity in a highly standardized manner across 60 different cell lines. Dxr2-017 and FolC2-001 were evaluated in this assay (S5 Fig). NCI-60 screens evaluate compounds at 10 μM X 48 hours. […] Of high interest, in the NCI-60 screen Dxr2-017 had relatively high activity against melanoma cell lines, inducing cell death in 5 cell lines ranging from 25–65%, and inhibiting growth in 4 cell lines ranging from 76–96%. Its impact on cell death represents the most striking relative difference in response across cell lines.

Compound: O=C(CCc1c[nH]c2ccccc12)N1CCSc2ccccc21 [FolC2-005]
mean number of colonies, % of control, 14 day (human CD34+ stem cells): 101 % of control
mean number of colonies, % of control, 8 day (human CD34+ stem cells): 105 % of control
efficacy ratio (cancer cell colonies to bone marrow colonies at 8 days) (HT116 colon cancer cells; 40 μM): 0.70
efficacy ratio (cancer cell colonies to bone marrow colonies at 8 days) (HT29 colon cancer cells; 40 μM): 0.06
efficacy ratio (cancer cell colonies to bone marrow colonies at 8 days) ([1]; 40 μM): 0.33
efficacy ratio (cancer cell colonies to bone marrow colonies at 8 days) ([2]; 40 μM): 0.78
efficacy ratio (cancer cell colonies to bone marrow colonies at 8 days) (H226 lung cancer cells; 40 μM): 0.11
efficacy ratio (cancer cell colonies to bone marrow colonies at 8 days) (A549 lung cancer cells; 40 μM): 0.69
efficacy ratio (cancer cell colonies to bone marrow colonies at 8 days) ([3]; 40 μM): 0.00
efficacy ratio (cancer cell colonies to bone marrow colonies at 8 days) ([4]; 40 μM): 0.28
relative activity for a given compound, % (% of cells tested where ratio is <0.5) ([5]; 40 μM): 63%
efficacy at concentrations below 40 μM [5]: A similar phenomenon is observed

Compound: c1ccc(CCc2n[nH]c(-c3ccccn3)n2)cc1 [FolC1-031]
mean number of colonies, % of control, 14 day (human CD34+ stem cells): 85 % of control
mean number of colonies, % of control, 8 day (human CD34+ stem cells): 80 % of control

Compound: O=C(Cn1c(=O)oc2ccccc21)N1CCn2c1nc1ccccc12 [FolC2-001]
mean number of colonies, % of control, 14 day (human CD34+ stem cells): 87 % of control
mean number of colonies, % of control, 8 day (human CD34+ stem cells): 108 % of control
efficacy ratio (cancer cell colonies to bone marrow colonies at 8 days) (HT116 colon cancer cells; 5.7 μM): 0.85
efficacy ratio (cancer cell colonies to bone marrow colonies at 8 days) (HT116 colon cancer cells; 40 μM): 0.60
efficacy ratio (cancer cell colonies to bone marrow colonies at 8 days) (HT29 colon cancer cells; 5.7 μM): 1.13
efficacy ratio (cancer cell colonies to bone marrow colonies at 8 days) (HT29 colon cancer cells; 40 μM): 0.79
efficacy ratio (cancer cell colonies to bone marrow colonies at 8 days) ([1]; 5.7 μM): 0.65
efficacy ratio (cancer cell colonies to bone marrow colonies at 8 days) ([1]; 40 μM): 0.43
efficacy ratio (cancer cell colonies to bone marrow colonies at 8 days) ([2]; 5.7 μM): 0.81
efficacy ratio (cancer cell colonies to bone marrow colonies at 8 days) ([2]; 40 μM): 0.28
efficacy ratio (cancer cell colonies to bone marrow colonies at 8 days) (H226 lung cancer cells; 5.7 μM): 0.56
efficacy ratio (cancer cell colonies to bone marrow colonies at 8 days) (H226 lung cancer cells; 40 μM): 0.00
efficacy ratio (cancer cell colonies to bone marrow colonies at 8 days) (A549 lung cancer cells; 5.7 μM): 0.99
efficacy ratio (cancer cell colonies to bone marrow colonies at 8 days) (A549 lung cancer cells; 40 μM): 0.53
efficacy ratio (cancer cell colonies to bone marrow colonies at 8 days) ([3]; 5.7 μM): 0.96
efficacy ratio (cancer cell colonies to bone marrow colonies at 8 days) ([3]; 40 μM): 0.41
efficacy ratio (cancer cell colonies to bone marrow colonies at 8 days) ([4]; 5.7 μM): 0.82
efficacy ratio (cancer cell colonies to bone marrow colonies at 8 days) ([4]; 40 μM): 0.34
number of cell lines exhibiting an efficacy ratio below 0.5 ([5]; 40 μM): 5 cell lines
relative activity for a given compound, % (% of cells tested where ratio is <0.5) ([5]; 40 μM): 63%
fold higher mean efficacy ratio than that of Dxr2-017 ([5]; 40 μM, cells with ratio below 0.5, P = 0.001): 9.7 fold
mean efficacy ratio for cells/compounds where the efficacy ratio is below 0.5 ([5]; 40 μM, mean ± SEM): 0.29 ± 0.09
efficacy at concentrations below 40 μM [5]: some degree of efficacy observed
activity in NCI-60 screen [6]: against H226

Compound: Cc1nnsc1C(=O)OCCCn1c(=O)[nH]c2ccccc21 [Dxr2-001]
mean number of colonies, % of control, 14 day (human CD34+ stem cells): 93 % of control
mean number of colonies, % of control, 8 day (human CD34+ stem cells): 109 % of control

Second part, led by results:

mean number of colonies, % of control, 14 day (human CD34+ stem cells): 119 % of control
mean number of colonies, % of control, 8 day (human CD34+ stem cells): 93 % of control
Compound: O=C(Nc1nnn[nH]1)c1cc(-c2ccccc2)nc2ccccc12 [PRT-051]

mean number of colonies, % of control, 14 day (human CD34+ stem cells): 94 % of control
mean number of colonies, % of control, 8 day (human CD34+ stem cells): 97 % of control
Compound: O=C(COC(=O)c1cccs1)c1ccc2[nH]c(=O)[nH]c2c1 [TYLT-003]

effect on bone marrow (human CD34+ stem cells; 0.82 μM): no effect
effect on bone marrow colony formation (human CD34+ stem cells; 5.7 μM): profound suppressive effects
hematopoietic colony formation, % of control (human CD34+ stem cells; 5.7 μM): 38 % of control
effect on bone marrow colony formation (human CD34+ stem cells; 40 μM): completely suppresses colony formation
Compound: O=c1[nH]cc(F)c(=O)[nH]1 [5FU, 5-fluorouracil, reference compound]
efficacy ratio (HT29 colon cancer cells; 0.82 μM): 0.82
efficacy ratio (cancer cell colonies to bone marrow colonies at 8 days) (HT29 colon cancer cells; 5.7 μM): 0.52

mean number of colonies, % of control, 14 day (human CD34+ stem cells): 103 % of control
mean number of colonies, % of control, 8 day (human CD34+ stem cells): 117 % of control
Compound: O=C(Cc1n[nH]c(=O)c2ccccc12)Nn1cnc2ccccc21 [TYLT-001]
